In patent publication US9475808B2, “Inhibitor compounds of phosphodiesterase type 10A” (AbbVie Deutschland GmbH & Co. KG, priority 2013, dated 2016):

How the values were obtained:
[1] = Determination of the microsomal half-life / microsomal clearance, rat liver microsomes; settings: 0.5 μM test substance, 0.25 mg microsomal protein/ml, pH 7.4, 37° C., NADPH
Protocol: (§1) The test substances were incubated in a concentration of 0.5 μM as follows:
(§2) 0.5 μM test substance are preincubated together with liver microsomes from different species (from rat, human or other species) (0.25 mg of microsomal protein/ml) in 0.05 M potassium phosphate buffer of pH 7.4 in microtiter plates at 37° C. for 5 min. The reaction is started by adding NADPH (1 mg/mL). After 0, 5, 10, 15, 20 and 30 min, 50 μl aliquots are removed, and the reaction is immediately stopped and cooled with the same volume of acetonitrile. The samples are frozen until analyzed. The remaining concentration of undegraded test substance is determined by MSMS. The half-life (T½) is determined from the gradient of the signal of test substance/unit time plot, it being possible to calculate the half-life of the test substance, assuming first order kinetics, from the decrease in the concentration of the compound with time. The microsomal clearance (mCl) is calculated from mCl=ln 2/T½/(content of microsomal protein in mg/ml)×1000 [ml/min/mg]

PDE10A = PDE10A (UniProt Q9Y233); assay: Measurement of PDE activity (HTRF cAMP assay, recombinant enzyme); assay type: biochemical; settings: 20 nM cyclic nucleotide substrate, 60 minutes at 29 C
Protocol: The recombinant PDE proteins are used in in vitro enzymatic reaction for measurement of PDE activity. These recombinant proteins, including PDE10A (human, rat and mouse PDE10) and isoforms of PDEs 1, 3, 4, and 5, were purchased from commercial vendor BPS Bioscience. The enzymatic activity of PDEs was determined by cAMP measurement kit from CisBio (IBA) using HTRF technology.
The PDE enzymatic reaction was carried out in assay buffer (20 mM Tris-HCl pH7.5, 10 mM MgCl2, 0.1% bovine serum albumin) containing enzyme and substrate. The PDE enzymes concentration ranged from 10 pM-250 pM, depending on each enzyme's specific activity. The substrate cyclic nucleotide (cAMP or cGMP) concentration used in the assay was 20 nM for PDE10, and 100 nM for other PDEs. The inhibitory effect of compound was determined by incubating various concentration of inhibitor in the enzymatic assay. Typically, compound was serial diluted in DMSO then further diluted in assay buffer. Next, the compound at varying concentration was mixed with PDE enzyme. The reaction was initiated by addition of cyclic nucleotide substrate, and incubated for 60 minutes at 29 C. The reaction was stopped by addition of lysis buffer from assay kit. The cAMP-d2 and anti-cAMP cryptate in the lysis buffer detected the level of cAMP left from the PDE hydrolysis reaction. The PDE activity is reversely correlated with the amount of cAMP left in the reaction and can be converted to the percent activity of an uninhibited control (100%). Thus, IC50 value of inhibitor can be obtained by plotting inhibitor concentration against PDE activity at that concentration.

[2] = Determination of the microsomal half-life / microsomal clearance, human liver microsomes; settings: 0.5 μM test substance, 0.25 mg microsomal protein/ml, pH 7.4, 37° C., NADPH
Protocol: as §1, §2

## Cn1cc2c(c(-c3cccnc3)c1=O)C(=O)N(CCc1ccc3ccccc3n1)C2 [Example 13, 5-Methyl-7-pyridin-3-yl-2-(2-quinolin-2-yl-ethyl)-3,5-dihydro-2H-pyrrolo[3,4-c]pyridine-1,6-dione]
[1]
  Rat mCl: ++ (++: <100 μl min^−1 mg^−1)
PDE10A
  IC50: > 500 nM
[2]
  Human mCl: ++ (++: <100 μl min^−1 mg^−1)

## COc1ccc(Cn2cc3c(c(N4CCOCC4)c2=O)C(=O)N(CCc2ccc4ccccc4n2)C3)cc1 [Example 14, 5-(4-Methoxy-benzyl)-7-morpholin-4-yl-2-(2-quinolin-2-yl-ethyl)-3,5-dihydro-2H-pyrrolo[3,4-c]pyridine-1,6-dione]
[1]
  Rat mCl: + (+: 100-220 μl min^−1 mg^−1)
PDE10A
  IC50: < 100 nM
[2]
  Human mCl: ∘ (∘: >220 μl min^−1 mg^−1)

## O=C1c2c(c[nH]c(=O)c2N2CCOCC2)CN1CCc1ccc2ccccc2n1 [Example 15, 7-Morpholin-4-yl-2-(2-quinolin-2-yl-ethyl)-3,5-dihydro-2H-pyrrolo[3,4-c]pyridine-1,6-dione]
[1]
  Rat mCl: ++ (++: <100 μl min^−1 mg^−1)
PDE10A
  IC50: < 100 nM
[2]
  Human mCl: ++ (++: <100 μl min^−1 mg^−1)

## CCn1cc2c(c(N3CCOCC3)c1=O)C(=O)N(CCc1ccc3ccccc3n1)C2 [Example 16, 5-Ethyl-7-morpholin-4-yl-2-(2-quinolin-2-yl-ethyl)-3,5-dihydro-2H-pyrrolo[3,4-c]pyridine-1,6-dione]
[1]
  Rat mCl: ++ (++: <100 μl min^−1 mg^−1)
PDE10A
  IC50: < 100 nM
[2]
  Human mCl: ++ (++: <100 μl min^−1 mg^−1)

## CC(C)n1cc2c(c(N3CCOCC3)c1=O)C(=O)N(CCc1ccc3ccccc3n1)C2 [Example 17, 5-Isopropyl-7-morpholin-4-yl-2-(2-quinolin-2-yl-ethyl)-3,5-dihydro-2H-pyrrolo[3,4-c]pyridine-1,6-dione]
[1]
  Rat mCl: ++ (++: <100 μl min^−1 mg^−1)
PDE10A
  IC50: < 100 nM
[2]
  Human mCl: ++ (++: <100 μl min^−1 mg^−1)

## COCCn1cc2c(c(N3CCOCC3)c1=O)C(=O)N(CCc1ccc3ccccc3n1)C2 [Example 18, 5-(2-Methoxy-ethyl)-7-morpholin-4-yl-2-(2-quinolin-2-yl-ethyl)-3,5-dihydro-2H-pyrrolo[3,4-c]pyridine-1,6-dione]
[1]
  Rat mCl: ++ (++: <100 μl min^−1 mg^−1)
PDE10A
  IC50: < 100 nM
[2]
  Human mCl: ++ (++: <100 μl min^−1 mg^−1)

## O=C1c2c(cn(CCO)c(=O)c2N2CCOCC2)CN1CCc1ccc2ccccc2n1 [Example 19, 5-(2-Hydroxy-ethyl)-7-morpholin-4-yl-2-(2-quinolin-2-yl-ethyl)-3,5-dihydro-2H-pyrrolo[3,4-c]pyridine-1,6-dione]
[1]
  Rat mCl: +++ (+++ <10 μl min^−1 mg^−1)
PDE10A
  IC50: < 100 nM
[2]
  Human mCl: ++ (++: <100 μl min^−1 mg^−1)

## Cn1cc2c(c(N3CCOCC3)c1=O)C(=O)N(CCc1nc3ccccc3n1C)C2 [Example 20, 5-Methyl-2-[2-(1-methyl-1H-benzoimidazol-2-yl)-ethyl]-7-morpholin-4-yl-3,5-dihydro-2H-pyrrolo[3,4-c]pyridine-1,6-dione]
[1]
  Rat mCl: ++ (++: <100 μl min^−1 mg^−1)
PDE10A
  IC50: < 100 nM
[2]
  Human mCl: ++ (++: <100 μl min^−1 mg^−1)

## Cn1cc2c(c(-c3cccnc3)c1=O)C(=O)N(CCc1nc3ccccc3n1C)C2 [Example 21, 5-Methyl-2-[2-(1-methyl-1H-benzoimidazol-2-yl)-ethyl]-7-pyridin-3-yl-3,5-dihydro-2H-pyrrolo[3,4-c]pyridine-1,6-dione]
[1]
  Rat mCl: ++ (++: <100 μl min^−1 mg^−1)
PDE10A
  IC50: 200 to 500 nM
[2]
  Human mCl: ++ (++: <100 μl min^−1 mg^−1)

## Cn1cc2c(c(N3CCOCC3)c1=O)C(=O)N(CCc1cn3ccccc3n1)C2 [Example 22, 2-(2-Imidazo[1,2-a]pyridin-2-yl-ethyl)-5-methyl-7-morpholin-4-yl-3,5-dihydro-2H-pyrrolo[3,4-c]pyridine-1,6-dione]
[1]
  Rat mCl: ++ (++: <100 μl min^−1 mg^−1)
PDE10A
  IC50: < 100 nM
[2]
  Human mCl: +++ (+++ <10 μl min^−1 mg^−1)

## Cn1cc2c(c(N3CCOCC3)c1=O)C(=O)N(CCc1nc3ccccn3n1)C2 [Example 24, 5-Methyl-7-morpholin-4-yl-2-(2-[1,2,4]triazolo[1,5-a]pyridin-2-yl-ethyl)-3,5-dihydro-2H-pyrrolo[3,4-c]pyridine-1,6-dione]
[1]
  Rat mCl: ++ (++: <100 μl min^−1 mg^−1)
PDE10A
  IC50: > 500 nM
[2]
  Human mCl: ++ (++: <100 μl min^−1 mg^−1)

## Cn1cc2c(c(N3CCOCC3)c1=O)C(=O)N(CCc1nc3n(n1)CCCC3)C2 [Example 25, 5-Methyl-7-morpholin-4-yl-2-[2-(5,6,7,8-tetrahydro-[1,2,4]triazolo[1,5-a]pyridin-2-yl)-ethyl]-3,5-dihydro-2H-pyrrolo[3,4-c]pyridine-1,6-dione]
[1]
  Rat mCl: +++ (+++ <10 μl min^−1 mg^−1)
PDE10A
  IC50: > 500 nM
[2]
  Human mCl: +++ (+++ <10 μl min^−1 mg^−1)

## Cn1cc2c(c(-c3cccnc3)c1=O)C(=O)N(CCc1nc3ccccn3n1)C2 [Example 26, 5-Methyl-7-pyridin-3-yl-2-(2-[1,2,4]triazolo[1,5-a]pyridin-2-yl-ethyl)-3,5-dihydro-2H-pyrrolo[3,4-c]pyridine-1,6-dione]
[1]
  Rat mCl: ++ (++: <100 μl min^−1 mg^−1)
PDE10A
  IC50: > 500 nM
[2]
  Human mCl: +++ (+++ <10 μl min^−1 mg^−1)

## Cn1cc2c(c(-c3ccc(F)cc3)c1=O)C(=O)N(CCc1ccc3ccccc3n1)C2 [Example 27, 7-(4-Fluoro-phenyl)-5-methyl-2-(2-quinolin-2-yl-ethyl)-3,5-dihydro-2H-pyrrolo[3,4-c]pyridine-1,6-dione]
[1]
  Rat mCl: ++ (++: <100 μl min^−1 mg^−1)
PDE10A
  IC50: 100 to 200 nM
[2]
  Human mCl: +++ (+++ <10 μl min^−1 mg^−1)

## Cn1cc2c(c(-c3cncnc3)c1=O)C(=O)N(CCc1ccc3ccccc3n1)C2 [Example 28, 5-Methyl-7-pyrimidin-5-yl-2-(2-quinolin-2-yl-ethyl)-3,5-dihydro-2H-pyrrolo[3,4-c]pyridine-1,6-dione]
[1]
  Rat mCl: ++ (++: <100 μl min^−1 mg^−1)
PDE10A
  IC50: 100 to 200 nM
[2]
  Human mCl: ++ (++: <100 μl min^−1 mg^−1)

## Cn1cc2c(c(-c3cn[nH]c3)c1=O)C(=O)N(CCc1ccc3ccccc3n1)C2 [Example 29, 5-Methyl-7-(1H-pyrazol-4-yl)-2-(2-quinolin-2-yl-ethyl)-3,5-dihydro-2H-pyrrolo[3,4-c]pyridine-1,6-dione]
[1]
  Rat mCl: ++ (++: <100 μl min^−1 mg^−1)
PDE10A
  IC50: > 500 nM
[2]
  Human mCl: +++ (+++ <10 μl min^−1 mg^−1)

## COc1ccc(-c2c3c(cn(C)c2=O)CN(CCc2ccc4ccccc4n2)C3=O)cc1 [Example 31, 7-(4-Methoxy-phenyl)-5-methyl-2-(2-quinolin-2-yl-ethyl)-3,5-dihydro-2H-pyrrolo[3,4-c]pyridine-1,6-dione]
[1]
  Rat mCl: ++ (++: <100 μl min^−1 mg^−1)
PDE10A
  IC50: 100 to 200 nM
[2]
  Human mCl: ++ (++: <100 μl min^−1 mg^−1)

## Cn1cc2c(c(-c3ccncc3)c1=O)C(=O)N(CCc1nc3ccccc3s1)C2 [Example 32, 2-[2-(1,3-benzothiazol-2-yl)ethyl]-5-methyl-7-(4-pyridyl)-3,5-dihydro-2H-pyrrolo[3,4-c]pyridine-1,6-dione]
[1]
  Rat mCl: +++ (+++ <10 μl min^−1 mg^−1)
PDE10A
  IC50: > 500 nM
[2]
  Human mCl: +++ (+++ <10 μl min^−1 mg^−1)

## Cn1cc2c(c(N3CCOCC3)c1=O)C(=O)N(CCc1nc3ccccc3s1)C2 [Example 33, 2-[2-(1,3-benzothiazol-2-yl)ethyl]-5-methyl-7-morpholin-4-yl-3,5-dihydro-2H-pyrrolo[3,4-c]pyridine-1,6-dione]
[1]
  Rat mCl: +++ (+++ <10 μl min^−1 mg^−1)
PDE10A
  IC50: 100 to 200 nM
[2]
  Human mCl: +++ (+++ <10 μl min^−1 mg^−1)

## Cn1cc2c(c(N3CCOCC3)c1=O)C(=O)N(CC(F)(F)c1ccc3ccccc3n1)C2 [Example 34, 2-(2,2-Difluoro-2-quinolin-2-yl-ethyl)-5-methyl-7-morpholin-4-yl-3,5-dihydro-2H-pyrrolo[3,4-c]pyridine-1,6-dione]
[1]
  Rat mCl: ++ (++: <100 μl min^−1 mg^−1)
PDE10A
  IC50: < 100 nM
[2]
  Human mCl: ++ (++: <100 μl min^−1 mg^−1)
